In this experiment the test system is CEM cells HIV-1 protection, formazan growth assay. Kind of experiment: NCI AIDS Antiviral Assay. To be noted: for IC50: measured here: growth of uninfected CEM cells. The method, boiled down: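 Protection of CEM cells against HIV-1 measured as cell growth via soluble formazan read-out, with five concentrations tested on both infected and uninfected cells; failure to protect may reflect toxicity.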

“And” between values parts separate entries of the source, which are not always exact repeats. Identical values can stand only once. The source made the active and inactive calls.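 The calls were made as follows: active = compounds giving half or more protection of infected cells from virus-caused growth loss, again on retest; inactive = the rest.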 Where a SMILES comes first, the peptide text is derived from it. The star is where a group is joined. Boc = CC(C)(C)OC(=O)*; OBn = c1ccc(CO*)cc1

On to `C=CCOC(=O)Cn1cnc2c(N)ncnc21`, for which the EC50 was greater than 200 µM and the IC50 is greater than 200 µM.
With `O=C(/C=C/c1ccc(O)c(O)c1)OCCOC(=O)/C=C/c1ccc(O)c(O)c1`, the EC50 was greater than 200 µM and the IC50 was found to be 10 µM.
For `O=C(O)c1ccc(/C=C/c2ccc(N=Nc3c(O)cc(O)cc3C(=O)O)cc2C(=O)O)cc1`, the EC50 was greater than 200 µM and the IC50 was 120 µM.
For `CC(C)=CCC(O)[C@](C)(O)[C@H]1[C@H](O)C[C@@]2(C)[C@@H]3CCc4cc(O)c(OC5OC(CO)C(O)C(O)C5O)cc4C3(C)C(=O)C[C@]12C` (stereo not given in full), in that order: greater than 200 µM and greater than 200 µM.
On the same counts, the results for `Cc1ccc(S(=O)(=O)OC(C=O)C(O)C(O)COC(c2ccccc2)(c2ccccc2)c2ccccc2)cc1` (stereo not given) are greater than 24.5 µM and greater than 24.5 µM.
For `O=C(CC(=O)N1N=C(N2c3ccccc3Sc3ccccc32)CC1c1ccccc1)Nc1ccccc1Cl` (stereo not given), in that order: greater than 200 µM and greater than 200 µM.
Turning to `CN(C)C(=S)N/N=C\C=N/NC(=S)N(C)C`, the EC50 was greater than 0.2 µM and the IC50 worked out at 0.117 µM.
On the same counts, the results for `CC(C)=C[C@@H]1C[C@H](n2cc(C)c(=O)[nH]c2=O)ON1CCOS(=O)(=O)c1ccc(C)cc1` are greater than 200 µM and 81.3 µM.
For `O=C1N=C2Sc3ccc4ccccc4c3N2C1=O`, in that order: greater than 355 µM and 182 µM.
On the same counts, the results for `S=C1SCCS1` are greater than 200 µM and greater than 200 µM.
Consider `CC(C(=O)c1ccc(O)cc1)C1(O)C(=O)Nc2c(Cl)cc(Cl)cc21` (stereo not given), for which the EC50 was greater than 257 µM and the IC50 worked out at 112 µM.
For `O=C(O)c1ccc2nc(-c3ccccn3)c(-c3ccccn3)nc2c1`, the EC50 was greater than 200 µM and the IC50 was greater than 200 µM.
For the molecule `Cc1cc2c(cc1C)N1C(Cl)=C3CCCCC3=C(C#N)C1N2` (stereo not given), the EC50 was greater than 20 µM and the IC50 was found to be 0.562 µM.
For `CCCN(CCC)C1=Nc2ccccc2-n2cnnc2C1`, in that order: greater than 200 µM and 178 µM.
For the molecule `O=C(O)c1ccc(Nc2nc3nn(Cc4ccccc4)cc3c(=O)s2)cc1`, the EC50 is greater than 195 µM and the IC50 was greater than 195 µM.
Turning to `Cc1ccc2c(c1)C(=O)N(CC[P+](c1ccccc1)(c1ccccc1)c1ccccc1)C2=O`, the EC50 is greater than 200 µM and the IC50 turned out to be 30.9 µM.
With `CNC1C(OC2C(OC3C(O)C(O)C(O)C(O)C3O)OC(C)C2(O)CO)OC(CO)C(O)C1O` (stereo not given) (tested in a mixture with another compound), the result was inactive.
Still for that read-out and setting: under `O=C1NC2(CCCCC2)C2CCCCC=C12` (stereo not given) stands “inactive”.
Take `CC(C)CC(NC(=O)C(Cc1ccccc1)NC(=O)C(Cc1ccccc1)NC(=O)OC(C)(C)C)C(=O)OCc1ccccc1` (stereo not drawn) (Boc-Phe-Phe-Leu-OBn; configuration not given here): the EC50 was greater than 200 µM and the IC50 was greater than 200 µM.
For the molecule `CCOC(=O)c1ccc(CS(=O)c2ccc(N)cc2)c([N+](=O)[O-])c1` (stereo not given), the EC50 was greater than 102 µM and the IC50 came to 26.9 µM.
With `CON(C)C(=O)C1CCCO1` (stereo not given), the EC50 was greater than 200 µM and the IC50 is greater than 200 µM.
`Cc1ccc(N2C(=O)N(c3ccc(C)cc3)C3(Sc4ccccc4N3C)C2=O)cc1` (stereo not given): the EC50 was greater than 12.6 µM and the IC50 is greater than 12.6 µM.
Turning to `COc1ccc(C(CC(=O)c2cccs2)C(=O)c2cccs2)cc1` (stereo not given), the EC50 was greater than 200 µM and the IC50 is greater than 200 µM.
Regarding `S=c1[nH]ncc(SCc2ccccc2)c1SCc1ccccc1`, the EC50 was greater than 200 µM and the IC50 is 13.2 µM.
On the same counts, the results for `CCCSc1nc(-c2ccc(OC)cc2)c(C#N)c(=O)n1C1OC(COC(C)=O)C(OC(C)=O)C(OC(C)=O)C1OC(C)=O` (stereo not given) are greater than 200 µM and greater than 200 µM.
For `CC1(C)OC(=O)C(=C=[N-])/C1=C\[n+]1ccccc1`, the EC50 is greater than 417 µM and the IC50 is greater than 417 µM.
Take `O=S(=O)(O)CCNC(=S)C(=S)NCCS(=O)(=O)O`: the outcome was inactive.
As for `CCOC(=O)/C(O)=C(/C=NC(=S)c1ccncc1)C(=O)OCC`, the EC50 is greater than 200 µM and the IC50 is greater than 200 µM.
As to `COc1cc(/C=C/c2ccc(OC)c(OC)c2)cc(OC2OC(CO)C(O)C(O)C2O)c1` (stereo not given), the outcome was inactive.
Consider `c1ccc2c(Nc3ncco3)cccc2c1`, for which the EC50 is greater than 200 µM and the IC50 amounted to 162 µM.
Consider `Cc1cc2c(C(C)C)c(O)c(O)c(C=Nc3ccc(N=Nc4ccccc4)cc3)c2c(O)c1-c1c(C)cc2c(C(C)C)c(O)c(O)c(C=Nc3ccc(N=Nc4ccccc4)cc3)c2c1O`, for which the outcome was inactive.
As for `Cn1c(-c2ccc(Br)cc2)cc2[nH]c(=S)nc(N)c2c1=O`, the EC50 is greater than 100 µM and the IC50 was greater than 100 µM.
`FC1C2=C(SC1(F)F)C1CCC2C1` (stereo not given): the EC50 was greater than 200 µM and the IC50 was greater than 200 µM.
With `c1nn2cnnc2s1`, the outcome was inactive.
For `O=[N+]([O-])c1cccnc1S(=O)(=O)c1ccccc1`, the EC50 is greater than 490 µM and the IC50 stood at 1.1 µM.
Consider `Nc1nc2c(ncn2CC2CCOC2=O)c(=O)[nH]1` (stereo not given), for which the result was inactive.
On to `CCOC(=O)C1(C(=O)OCC)CC=C(C)CC12C(=O)Nc1ccccc12` (stereo not given), for which the EC50 was greater than 72.4 µM and the IC50 was greater than 72.4 µM.
Regarding `CC1CC(c2ccccc2)=Nc2ccccc2S1` (stereo not given), the EC50 is greater than 14.1 µM and the IC50 was greater than 14.1 µM.
Consider `Cc1nc(-n2nc(-c3ccccc3)cc2-c2ccccc2)sc1C(=O)/C=C/c1ccc(/C=C/C(=O)c2sc(-n3nc(-c4ccccc4)cc3-c3ccccc3)nc2C)cc1`, for which the EC50 is greater than 22.9 µM and the IC50 is greater than 22.9 µM.
Take `O=C1CN2C=CC=CC2=NN1`: the EC50 is greater than 603 µM and the IC50 is 407 µM.
For `COC(=O)C(Cc1ccc2c(c1)OCO2)(NC(=O)c1ccccc1)P(=O)(OC)OC` (stereo not given), in that order: greater than 575 µM and greater than 575 µM.
For `CCOC(=O)/C(C#N)=C/c1ccc(C)cc1`, in that order: greater than 120 µM and greater than 120 µM.
On the same counts, the results for `Cc1c([N+](=O)[O-])c(=O)oc2c1ccc1occc(=O)c12` are greater than 132 µM and 117 µM.
`COC1CCC(O)C(CO)O1` (stereo not given): the outcome was inactive.
For `CN(C)c1ccc(/C=C2\CC(C)(C)c3ccccc3C2=O)cc1`, the EC50 was greater than 2 µM and the half-maximal inhibitory concentration (IC50) is 0.363 µM.
Turning to `O=C(CSC(=S)N1CCCCC1)Nc1nc2c(s1)CCCC2`, the EC50 is greater than 38 µM and the 50% inhibitory concentration (IC50) was greater than 38 µM.
For `C/C(=N\NC(=S)Nc1ccc(C(=O)O)cc1)c1ccccn1`, the EC50 is greater than 110 µM and the IC50 was determined as 18.2 µM.
Take `O=c1ccc(=O)c2c1c1[nH]c3ccccc3c1c1c(=O)c3ccccc3c(=O)c21`: the EC50 is greater than 200 µM and the IC50 stood at 18.6 µM.
For `CCOc1ccc(Nc2nc(N)nc(N)c2N)cc1`, the EC50 is greater than 200 µM and the IC50 came out at 66.1 µM.
For `C[C@@]1(CO[N+](=O)[O-])OC(=O)N2CCC[C@H]21`, in that order: greater than 1150 µM and greater than 1150 µM.
For the molecule `N#Cc1c(OCCF)c2ccccc2n2c1nc1ccccc12`, the EC50 was greater than 100 µM and the IC50 is greater than 100 µM.
For `CC(=O)Oc1ccc(C2(c3ccc(OC(C)=O)cc3)C(=O)Nc3ccccc32)cc1`, the EC50 is greater than 200 µM; the IC50 is 35.5 µM and 36.3 µM.
As to `CC1(C)CCCC2OC2CCC(C)(C)C1=O` (stereo not given), the EC50 was greater than 200 µM and the IC50 is greater than 200 µM.
With `COc1nc(N)c(N=O)c(=O)n1C`, the result was inactive.
`Cc1cc2occ(C)c(=O)c2c2c1OC(C)(C)S2`: the EC50 is greater than 100 µM and the 50% inhibitory concentration (IC50) is 51.3 µM.
On to `CC1OC(n2cc(F)c(=O)[nH]c2=O)CCC1O` (stereo not given), for which the EC50 is greater than 1020 µM and the IC50 was greater than 200 µM.
On the same counts, the results for `CCOC(=O)/C(C#N)=C/c1ccccc1OC` are greater than 112 µM and greater than 112 µM.
On the same counts, the results for `CCOC(=O)C1(C(=O)OCC)C[C@@H](C)[C@@H](O)C1` are greater than 200 µM and greater than 200 µM.
As to `CC1CCOS(=O)O1` (stereo not given), the EC50 was greater than 1820 µM and the half-maximal inhibitory concentration (IC50) was greater than 1820 µM.
Consider `CCC(C)CC(C)CC(C)/C=C(\C)C1=C(C)CC(C)(O)O1` (stereo not given), for which the outcome was inactive.
Regarding `Cc1ccc(/C=C2\CCCCCC2=O)cc1`, the EC50 is greater than 200 µM and the IC50 stood at 182 µM.
Take `CCOC(=O)c1cnc2[nH]ccn2c1=O`: the EC50 is greater than 200 µM and the IC50 was greater than 200 µM.
As for `O=C(Nc1ccc(Cl)c(C(F)(F)F)c1)C(=O)c1c(O)c2ccccc2oc1=O`, the EC50 is greater than 229 µM and the half-maximal inhibitory concentration (IC50) was found to be 191 µM.
On to `Cc1nc2c(=O)n(C)ncc2[nH]1`, for which the EC50 was greater than 200 µM and the IC50 was greater than 200 µM.
For the molecule `Cc1cn(C2CC(N=[N+]=[N-])C(COC(=O)CCCCCCCCCCN=[N+]=[N-])O2)c(=O)[nH]c1=O` (stereo not given), the EC50 is 0.0389 µM and the IC50 was 28.8 µM.
Regarding `C=C1C(OC(=O)C(OC(C)=O)C(c2ccccc2)N(C)C)C[C@H](O)[C@]2(C)C1C[C@@H]1CC(OC(C)=O)C(C)=C([C@@H](OC(C)=O)C2O)C1(C)C` (stereo not given in full), the outcome was inactive.
Turning to `COC1=C(C2=NC(C)(C)CO2)c2ccccc2C(C/C=C/[Si](C)(C)C)C1` (stereo not given), the EC50 was greater than 26.9 µM and the IC50 was greater than 26.9 µM.
Take `O=C1c2cccnc2S(=O)(=O)N1c1ccc([N+](=O)[O-])cc1`: the EC50 is greater than 200 µM and the IC50 is 23.4 µM.
For `Cc1cccc(C(C)(C)C)c1NC(=O)CC1Sc2ccccc2NC1=O` (stereo not given), in that order: greater than 51.3 µM and greater than 51.3 µM.
Consider `COc1ccc2nc3ccccc3c(NCCCCCN(C)CCCl)c2c1`, for which the result was inactive.
In the case of `CCC(=O)C(CCN1CCC2(CCCc3ccccc32)CC1)(c1ccccc1)c1ccccc1`, the EC50 was greater than 200 µM and the IC50 stood at 6.61 µM.
In the case of `Cc1c2c(n(CCc3ccc(Cl)cc3)c1C)NN=C(C#N)S2(=O)=O`, the EC50 was greater than 200 µM and the IC50 was 85.1 µM.
Consider `CC(=O)N1CC(=O)N2C(=O)/C(=C/c3ccc(Cl)cc3)N=C12`, for which the EC50 was greater than 63.1 µM and the IC50 turned out to be 6.92 µM.
`COc1ccc(/C=C/CO)cc1OC`: the outcome was inactive.

(Values after PubChem BioAssay AID179 (DTP/NCI, 2004).)
